Measured values as given in patent US6608086B2, “Dihydropyridines and new uses thereof” (Synaptic Pharmaceutical Corporation, priority 1993, dated 2003).
Structures can show the parent of a compound that is named as a salt. Where two headings read alike, the source gives them in different places.

How the values were obtained:
α2B receptor = target: T1, α2B receptor (Homo sapiens, UniProt P18089); test: Competition binding, [3H]rauwolscine, human α2B receptor; settings: pKi alpha-2 2b
T1 construct: host or cells: LM(tk-) cells, line L-NGC-α2B
T1 sequence (P18089 1-450): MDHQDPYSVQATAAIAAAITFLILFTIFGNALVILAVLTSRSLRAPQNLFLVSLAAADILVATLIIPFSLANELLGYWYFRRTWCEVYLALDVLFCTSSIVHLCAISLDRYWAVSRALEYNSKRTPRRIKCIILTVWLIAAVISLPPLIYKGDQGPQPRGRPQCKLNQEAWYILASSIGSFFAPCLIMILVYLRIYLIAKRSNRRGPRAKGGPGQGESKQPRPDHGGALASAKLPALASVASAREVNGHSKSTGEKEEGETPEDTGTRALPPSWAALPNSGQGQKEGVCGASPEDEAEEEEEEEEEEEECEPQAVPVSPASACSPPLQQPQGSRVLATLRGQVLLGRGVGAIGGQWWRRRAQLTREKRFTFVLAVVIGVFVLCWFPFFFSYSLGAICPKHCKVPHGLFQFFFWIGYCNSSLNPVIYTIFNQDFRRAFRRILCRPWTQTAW
Procedure, shortened: (§1)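 Equilibrium displacement of [3H]rauwolscine (0.5 nM) measured on membranes from stably transfected LM(tk−) lines, one per α2 subtype, in glycylglycine buffer at pH 7.6. Nonspecific binding set by 10 μM phentolamine; separation by filtration.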

α2C receptor = target: T2, α2C receptor (Homo sapiens, UniProt P18825); test: Competition binding, [3H]rauwolscine, human α2C receptor
T2 construct: host or cells: LM(tk-) cells, line L-α2C
T2 sequence (P18825 1-462): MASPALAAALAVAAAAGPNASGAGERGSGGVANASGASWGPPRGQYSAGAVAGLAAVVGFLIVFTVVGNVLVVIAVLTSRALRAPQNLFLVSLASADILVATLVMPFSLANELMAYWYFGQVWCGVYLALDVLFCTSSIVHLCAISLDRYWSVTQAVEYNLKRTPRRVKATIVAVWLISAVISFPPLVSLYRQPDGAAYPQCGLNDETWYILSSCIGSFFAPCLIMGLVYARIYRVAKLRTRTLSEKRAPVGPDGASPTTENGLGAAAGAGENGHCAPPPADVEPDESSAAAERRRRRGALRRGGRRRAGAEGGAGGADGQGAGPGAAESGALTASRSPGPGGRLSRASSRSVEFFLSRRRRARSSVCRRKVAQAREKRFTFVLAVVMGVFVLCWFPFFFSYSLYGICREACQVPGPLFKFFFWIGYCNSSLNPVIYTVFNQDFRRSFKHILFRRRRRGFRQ
Procedure, shortened: as §1

L-type calcium channel = target: T3, L-type calcium channel (Rattus norvegicus, UniProt P22002); test: Competition binding of [3H]nitrendipine to membrane fragments of rat cardiac muscle
T3 construct: membrane fragments of rat cardiac muscle; from tissue; host or cells: rat cardiac muscle membranes
T3 sequence (P22002 whole entry, other chains not shown, the tested form may be a part): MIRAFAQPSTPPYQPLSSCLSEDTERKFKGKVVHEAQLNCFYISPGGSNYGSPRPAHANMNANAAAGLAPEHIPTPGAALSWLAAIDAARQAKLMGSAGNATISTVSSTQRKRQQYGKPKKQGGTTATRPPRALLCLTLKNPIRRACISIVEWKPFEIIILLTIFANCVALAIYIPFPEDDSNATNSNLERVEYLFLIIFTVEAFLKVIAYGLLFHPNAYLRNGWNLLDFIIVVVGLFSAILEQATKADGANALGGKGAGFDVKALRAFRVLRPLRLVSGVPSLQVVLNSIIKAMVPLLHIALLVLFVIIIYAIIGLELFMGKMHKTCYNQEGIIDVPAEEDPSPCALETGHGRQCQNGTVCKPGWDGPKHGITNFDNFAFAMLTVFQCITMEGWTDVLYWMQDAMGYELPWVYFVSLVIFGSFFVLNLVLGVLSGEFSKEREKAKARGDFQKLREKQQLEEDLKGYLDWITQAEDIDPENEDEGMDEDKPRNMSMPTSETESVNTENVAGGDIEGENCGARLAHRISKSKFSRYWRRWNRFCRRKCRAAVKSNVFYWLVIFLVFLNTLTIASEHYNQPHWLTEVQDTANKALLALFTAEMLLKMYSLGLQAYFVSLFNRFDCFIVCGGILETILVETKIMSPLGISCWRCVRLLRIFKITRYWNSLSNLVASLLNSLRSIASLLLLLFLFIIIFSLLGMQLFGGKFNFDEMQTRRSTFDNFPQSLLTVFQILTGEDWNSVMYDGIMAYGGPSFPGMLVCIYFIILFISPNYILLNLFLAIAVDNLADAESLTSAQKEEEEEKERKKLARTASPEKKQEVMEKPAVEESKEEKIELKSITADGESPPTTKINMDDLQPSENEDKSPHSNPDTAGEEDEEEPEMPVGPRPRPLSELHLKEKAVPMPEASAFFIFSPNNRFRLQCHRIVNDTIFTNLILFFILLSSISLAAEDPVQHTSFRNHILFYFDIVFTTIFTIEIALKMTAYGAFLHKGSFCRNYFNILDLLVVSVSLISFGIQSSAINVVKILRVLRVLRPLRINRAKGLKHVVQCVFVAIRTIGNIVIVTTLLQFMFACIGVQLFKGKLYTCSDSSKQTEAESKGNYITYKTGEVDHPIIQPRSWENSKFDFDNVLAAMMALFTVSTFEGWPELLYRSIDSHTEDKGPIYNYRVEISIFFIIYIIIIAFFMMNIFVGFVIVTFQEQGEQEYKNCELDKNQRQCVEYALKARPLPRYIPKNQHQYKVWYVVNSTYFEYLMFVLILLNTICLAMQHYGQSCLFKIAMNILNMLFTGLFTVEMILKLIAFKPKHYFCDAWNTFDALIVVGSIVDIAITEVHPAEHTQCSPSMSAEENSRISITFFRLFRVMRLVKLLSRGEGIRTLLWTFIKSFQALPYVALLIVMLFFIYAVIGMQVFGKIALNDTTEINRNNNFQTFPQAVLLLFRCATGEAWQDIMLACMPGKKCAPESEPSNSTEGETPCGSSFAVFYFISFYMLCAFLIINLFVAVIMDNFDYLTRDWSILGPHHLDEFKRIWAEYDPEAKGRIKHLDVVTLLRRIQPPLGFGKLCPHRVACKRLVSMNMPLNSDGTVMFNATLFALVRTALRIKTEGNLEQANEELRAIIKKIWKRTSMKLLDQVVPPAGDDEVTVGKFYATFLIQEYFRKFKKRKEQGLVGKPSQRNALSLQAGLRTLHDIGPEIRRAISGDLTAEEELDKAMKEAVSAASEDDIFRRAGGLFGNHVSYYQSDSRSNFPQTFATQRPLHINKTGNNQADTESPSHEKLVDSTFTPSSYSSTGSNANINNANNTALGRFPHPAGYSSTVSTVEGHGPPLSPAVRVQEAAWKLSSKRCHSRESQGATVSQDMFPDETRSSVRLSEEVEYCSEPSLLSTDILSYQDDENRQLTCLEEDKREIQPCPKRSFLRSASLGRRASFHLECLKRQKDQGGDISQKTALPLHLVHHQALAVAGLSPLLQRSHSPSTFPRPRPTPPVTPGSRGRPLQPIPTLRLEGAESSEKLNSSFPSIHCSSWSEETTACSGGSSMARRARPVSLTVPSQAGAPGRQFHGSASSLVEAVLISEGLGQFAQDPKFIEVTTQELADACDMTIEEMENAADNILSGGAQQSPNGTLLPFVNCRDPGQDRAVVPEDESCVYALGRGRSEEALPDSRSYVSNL
T3 sequence (P54290 25-944 partner limits assumed, other chains not shown): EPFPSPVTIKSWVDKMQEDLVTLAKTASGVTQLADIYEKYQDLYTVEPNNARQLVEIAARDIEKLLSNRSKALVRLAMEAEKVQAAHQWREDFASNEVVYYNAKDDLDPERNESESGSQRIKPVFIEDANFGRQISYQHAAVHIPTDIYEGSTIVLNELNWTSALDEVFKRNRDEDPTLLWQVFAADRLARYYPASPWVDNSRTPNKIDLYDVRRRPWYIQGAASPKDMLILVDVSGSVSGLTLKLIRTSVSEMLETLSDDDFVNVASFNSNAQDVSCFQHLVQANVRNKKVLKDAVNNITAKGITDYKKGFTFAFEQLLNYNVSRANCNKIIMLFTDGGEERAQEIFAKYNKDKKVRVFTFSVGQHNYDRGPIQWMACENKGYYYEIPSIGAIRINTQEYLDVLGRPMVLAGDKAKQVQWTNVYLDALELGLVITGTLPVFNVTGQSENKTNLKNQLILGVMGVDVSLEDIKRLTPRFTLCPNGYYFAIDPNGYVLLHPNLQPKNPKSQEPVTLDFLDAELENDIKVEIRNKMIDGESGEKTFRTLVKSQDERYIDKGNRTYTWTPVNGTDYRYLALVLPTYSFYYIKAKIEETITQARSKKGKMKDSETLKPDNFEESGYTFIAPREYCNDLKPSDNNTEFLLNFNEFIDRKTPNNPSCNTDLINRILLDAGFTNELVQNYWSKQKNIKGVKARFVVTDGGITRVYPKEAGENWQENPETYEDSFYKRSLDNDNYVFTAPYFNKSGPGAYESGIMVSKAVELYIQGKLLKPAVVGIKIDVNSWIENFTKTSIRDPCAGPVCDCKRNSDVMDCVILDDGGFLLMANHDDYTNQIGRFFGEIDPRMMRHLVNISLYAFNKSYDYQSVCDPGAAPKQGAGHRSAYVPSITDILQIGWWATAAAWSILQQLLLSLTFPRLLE
T3 sequence (P54290 945-1091 partner limits assumed, other chains not shown): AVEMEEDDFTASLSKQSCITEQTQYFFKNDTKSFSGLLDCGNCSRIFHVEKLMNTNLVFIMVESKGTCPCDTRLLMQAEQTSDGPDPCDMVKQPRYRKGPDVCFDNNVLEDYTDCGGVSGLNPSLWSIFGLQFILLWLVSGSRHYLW

[1] = [3H]rauwolscine, human α2B receptor, LM(tk−) cells
[2] = pKi alpha-2 2c, [3H]rauwolscine, human α2C receptor, LM(tk−) cells
[3] = [3H]nitrendipine, rat cardiac muscle membrane fragments, L-type calcium channel, read-out: pKi Ca (converted)
[4] = [3H]rauwolscine, LM(tk-) cell line L-NGC-α2B, SEM and n in lines below
[5] = [3H]rauwolscine, LM(tk-) cell line L-α2C, SEM and n in lines below, read-out: pKi alpha-2 2c (converted)
[6] = [3H]nitrendipine, rat cardiac muscle membranes, SEM and n in lines below, read-out: pKi Ca (converted)

| Compound | Ki (α2B receptor) | Ki (α2C receptor; pKi alpha-2 2c) | Ki (L-type calcium channel; pKi Ca) | other results |
| --- | --- | --- | --- | --- |
| CCC1=C(C(N)=O)C(c2ccc([N+](=O)[O-])cc2)C(C(=O)NCCCN2CCC(C#N)(c3ccccc3)CC2)=C(CC)N1 (racemic) [(±)-102, 5-Carboxamido-3-{N-[(4-cyano-4-phenylpiperidin-1-ly)propyl]carboxamido-2,6-diethyl-1,4-dihydro-4-(4-nitrophenyl)pyridine hydrochloride hydrate] | – | – | – | Ki (α2B receptor; [1]): 1.02 µM; Ki (α2C receptor; [2]): 1.74 µM; Ki (L-type calcium channel; [3]): 72.4 µM |
| CCC1=C(C(N)=O)C(c2ccc([N+](=O)[O-])cc2)C(C(=O)NCCCN2CCC(C#N)(c3ccccc3)CC2)=C(CC)N1 (single isomer, unassigned; (+)) [(+)-102] | – | – | – | Ki (α2B receptor; [1]): 1.91 µM; Ki (α2C receptor; [2]): 3.31 µM; Ki (L-type calcium channel; [3]): 1000 µM |
| CCC1=C(C(N)=O)C(c2ccc([N+](=O)[O-])cc2)C(C(=O)NCCCN2CCC(C#N)(c3ccccc3)CC2)=C(CC)N1 (single isomer, unassigned; (-)) [(−)-102] | – | – | – | Ki (α2B receptor; [1]): 0.589 µM; Ki (α2C receptor; [2]): 1.05 µM; Ki (L-type calcium channel; [3]): 0.55 µM |
| COC(=O)C1=C(C)NC(C)=C(C(=O)NCCCN2CCC(c3ccccc3)(c3ccccc3)CC2)C1c1ccc(C(F)(F)F)cc1 (stereo not drawn) [Example 1] | 3.31 µM | 0.17 µM | 6.61 µM | – |
| CCC1=C(C(=O)NCCCN2CCC(c3ccccc3)(c3ccccc3)CC2)C(c2ccc([N+](=O)[O-])cc2)C(C(=O)OCc2ccccc2)=C(C)N1 (stereo not drawn) [Example 4, 5-Benzyloxycarbonyl-2-ethyl-1,4-dihydro-6-methyl-4-(4-nitrophenyl)-3-(N-(3-(4,4-diphenylpiperidin-1-yl)propyl)carboxamido) pyridine, Hydrochloride Salt, Hydrate] | – | – | – | Ki (α2B receptor; [4]): 1.02 µM; Ki (α2C receptor; [5]): 0.501 µM; Ki (L-type calcium channel; [6]): 0.977 µM |
| COC(=O)C1=C(C)NC(C)=C(C(=O)NCCCN2CCC(c3ccccc3)(c3ccccc3)CC2)C1c1ccncc1 (stereo not drawn) [Example 5, 1,4-Dihydro-5-methoxycarbonyl-2,6-dimethyl-3-(N-(3-(4,4-diphenylpiperidin-1-yl)propyl)carboxamido)-4-(4-pyridyl)pyridine] | 2.14 µM | 24.5 µM | 4.57 µM | – |
| COC(=O)C1=C(C)NC(C)=C(C(=O)NCCCN2CCC(c3ccccc3)(c3ccccc3)CC2)C1C1CCCCC1 (stereo not drawn) [Example 6] | 0.447 µM | 0.24 µM | 1.58 µM | – |
| COC(=O)C1=C(C)NC(C)=C(C(=O)NCCCN2CCC(c3ccccc3)(c3ccccc3)CC2)C1c1ccc(-c2ccccc2)cc1 (stereo not drawn) [Example 7] | 1.62 µM | 1.23 µM | 0.871 µM | – |
| COC(=O)C1=C(C)NC(C)=C(C(=O)NCCCN2CCC(c3ccccc3)(c3ccccc3)CC2)C1Cc1ccccc1 (stereo not drawn) [Example 8, 4-Benzyl-1,4-dihydro-3-methoxycarbonyl-2,6-dimethyl-5-(N-(3-(4,4-diphenylpiperidin-1-yl)propyl)carboxamido)pyridine] | – | – | – | Ki (α2B receptor; [4]): 1.86 µM; Ki (α2C receptor; [5]): 0.339 µM; Ki (L-type calcium channel; [6]): 11.5 µM |
| COC(=O)C1=C(C)NC(C)=C(C(=O)NCCCN2CCC(c3ccccc3)(c3ccccc3)CC2)C1c1cc[n+]([O-])cc1 (stereo not drawn) [Example 9, 1,4-Dihydro-3-methoxycarbonyl-2,6-Dimethyl-4-(1-oxido-4-pyridyl)-5-(N-(3-(4,4-diphenylpiperidin-1-yl)propyl)carboxamido)pyridine] | – | – | – | Ki (α2B receptor; [4]): 0.55 µM; Ki (α2C receptor; [5]): 1.32 µM; Ki (L-type calcium channel; [6]): 19.1 µM |
| COC(=O)C1=C(C)NC(C)=C(C(=O)NCCCN2CCC(c3ccccc3)(c3ccccc3)CC2)C1c1ccc(Cl)cc1 (stereo not drawn) [Example 10, 4-(4-Chlorophenyl)-1,4-dihydro-5-methoxycarbonyl-2,6-Dimethyl-5-(N-(3-(4,4-diphenylpiperidin-1-yl)propyl)carboxamido)pyridine] | 3.31 µM | 1.23 µM | 7.59 µM | – |
| COC(=O)C1=C(C)NC(C)=C(C(=O)NCCCN2CCC(c3ccccc3)(c3ccccc3)CC2)C1c1ccc2c(c1)OCO2 (stereo not drawn) [Example 11, 1,4-Dihydro-3-methoxycarbonyl-2,6-dimethyl-4-(3,4-methylenedioxyphenyl)-5-(N-(3-(4,4-diphenylpiperidin-1-yl)propyl)carboxamido)pyridine] | 0.871 µM | 0.575 µM | 2.29 µM | – |
| COC(=O)C1=C(C)NC(C)=C(C(=O)NCCCN2CCC(c3ccccc3)(c3ccccc3)CC2)C1c1ccc(C#N)cc1 (stereo not drawn) [Example 12, 4-(4-Cyanophenyl)-1,4-dihydro-3-methoxycarbonyl-2,6-dimethyl-5-(N-(3-(4,4-diphenylpiperidin-1-yl)propyl)carboxamido)pyridine] | 1.26 µM | 0.871 µM | 3.8 µM | – |
| COC(=O)C1=C(C)NC(C)=C(C(=O)NCCCN2CCC(c3ccccc3)(c3ccccc3)CC2)C1c1ccc(I)cc1 (stereo not drawn) [Example 13, 1,4-Dihydro-4-(4-iodophenyl)-3-methoxycarbonyl-2,6-dimethyl-5-(N-(3-(4,4-diphenylpiperidin-1-yl)propyl)carboxamido)pyridine] | 1.74 µM | 0.646 µM | 8.91 µM | – |
| COC(=O)C1=C(C)NC(C)=C(C(=O)NCCCN2CCC(c3ccccc3)(c3ccccc3)CC2)C1c1ccc(Br)cc1 (stereo not drawn) [Example 15, 4-(4-Bromophenyl)-1,4-dihydro-3-methoxycarbonyl-2,6-dimethyl-5-(N-(3-(4,4-diphenylpiperidin-1-yl)propyl)carboxamido)pyridine] | 3.39 µM | 1.12 µM | 7.24 µM | – |
| COC(=O)C1=C(C)NC(C)=C(C(=O)NCCCN2CCC(c3ccccc3)(c3ccccc3)CC2)C1c1ccc(Cl)c([N+](=O)[O-])c1 (stereo not drawn) [Example 16, 4-(4-Chloro-3-nitrophenyl)-1,4-dihydro-3-methoxycarbonyl-2,6-dimethyl-5-(N-(3-(4,4-diphenylpiperidin-1-yl)propyl)carboxamido)pyridine] | 1.82 µM | 0.38 µM | 0.813 µM | – |
| COC(=O)C1=C(C)NC(C)=C(C(=O)NCCCN2CCC(c3ccccc3)(c3ccccc3)CC2)C1c1ccc(C(C)C)cc1 (stereo not drawn) [Example 18, 1,4-Dihydro-4-(4-isopropylphenyl)-3-methoxycarbonyl-2,6-dimethyl-5-(N-(3-(4,4-diphenylpiperidin-1-yl)propyl)carboxamido)pyridine] | 1.62 µM | 0.933 µM | 0.162 µM | – |
| COC(=O)C1=C(C)NC(C)=C(C(=O)NCCCN2CCC(c3ccccc3)(c3ccccc3)CC2)C1c1ccc(C)cc1 (stereo not drawn) [Example 19, 1,4-Dihydro-3-methoxycarbonyl-1,6-dimethyl-4-(4-methylphenyl)-5-(N-(3-(4,4-diphenylpiperidin-1-yl)propyl)carboxamido)pyridine] | 0.912 µM | 0.417 µM | 7.41 µM | – |
| COC(=O)C1=C(C)NC(C)=C(C(=O)NCCCN2CCC(c3ccccc3)(c3ccccc3)CC2)C1c1ccc(F)cc1 (stereo not drawn) [Example 20, 4-(4-Fluorophenyl)-1,4-dihydro-3-methoxycarbonyl-2,6-dimethyl-5-(N-(3-(4,4-diphenylpiperidin-1-yl)propyl)carboxamido)pyridine] | 1.32 µM | 0.813 µM | 1.15 µM | – |
| COC(=O)C1=C(C)NC(C)=C(C(=O)NCCCN2CCC(c3ccccc3)(c3ccccc3)CC2)C1c1ccc(OC)cc1 (stereo not drawn) [Example 21, 1,4-Dihydro-3-methoxycarbonyl-4-(4-Methoxyphenyl)-2,6-dimethyl-5-(N-(3-(4,4-diphenylpiperidin-1-yl)propyl)carboxamido)pyridine] | 1.07 µM | 0.776 µM | 1 µM | – |
| COC(=O)C1=C(C)NC(C)=C(C(=O)NCCCN2CCC(c3ccccc3)(c3ccccc3)CC2)C1c1ccc2ccccc2c1 (stereo not drawn) [Example 22] | 0.912 µM | 0.631 µM | 0.372 µM | – |
| COC(=O)C1=C(C)NC(C)=C(C(=O)NCCCN2CCC(c3ccccc3)(c3ccccc3)CC2)C1c1ccoc1 (stereo not drawn) [Example 23, 4-(3-Furyl)-1,4-dihydro-3-methoxycarbonyl-2,6-dimethyl-5-(N-(3-(4,4-diphenylpiperidin-1-yl)propyl)carboxamide)pyridine] | – | – | – | Ki (α2B receptor; [4]): 0.562 µM; Ki (α2C receptor; [5]): 0.468 µM; Ki (L-type calcium channel; [6]): 0.288 µM |
